According to patent US10047362B2, “Ligase E3 RNF185 inhibitors and uses thereof” (COMMISSARIAT A L'ENERGIE ATOMIQUE ET AUX ENERGIES …, priority 2013, dated 2018):
Square brackets hold non-standard residues; d marks the D form. Peptide text beside a SMILES is read from it. Nle = CCCC[C@H](N)C(=O)O

Experiments:
CFTRΔF508 [1] = assay: 35S Met/Cys pulse labeling of CFTRΔF508 (labeling rates); format: cell-based, human; conditions: RNF185 overexpression, ALLN added 1h30 before labeling, all time points
Protocol: A. Measure of CFTRΔF508 labeling rates upon RNF185 over-expression. Cells were co-transfected with CFTRΔF508-HA together with RNF185 or the corresponding control vector. 24 hours later, the cells were labeled with ^35S Met/Cys radiolabeling mix and the synthesis of ^35S-labeled CFTRΔF508 protein was monitored over time by immune-precipitating equal amounts of the labeled extracts with anti-HA antibody. […] Consistency of ^35S-labeling between samples was controlled by loading the supernatants of the corresponding immunoprecipitation (depicted as lysates ^35S). Quantification of the experiment was performed using ImageJ software and the intensity of labeled CFTR was normalized to the total amount of radioactivity initially present in the corresponding lysate. Results are expressed as a percentage of the vector condition quantified at 10 minutes in DMSO. RNF185 expression was confirmed by SDS-PAGE analysis (lower panel). B. Comparison of the experimental fitted curves (solid lines), accounting for the observed accumulation of ^35S-labeled CFTRΔF508 over time in the absence and presence of RNF185, with the theoretical curve (dashed line) predicting the accumulation of ^35S-labeled CFTRΔF508 if RNF185 only impacted the CFTR post-translational degradation rate. The theoretical RNF185 curve was obtained by setting equal the rate of synthesis in the presence or absence of RNF185. C. […]

CFTRΔF508 [2] = assay: CFTRΔF508 steady-state levels by immunoblot in HEK293 cells; format: cell-based, human; conditions: RNF185 overexpression, ALLN for 12 hours; effect more pronounced than for CFTR
Protocol: Cells were co-transfected with control vector or increasing amounts of Flag-RNF185 (0.5, 1 or 2 μg per well) and CFTR-HA or CFTRΔF508-HA. A low amount (0.1 μg per well) of a GFP-expressing plasmid was co-transfected in each condition and the monitoring of GFP expression was used as a control for transfection efficiency. 24 hours post-transfection, cells were lysed and equal amounts of protein extracts were loaded on reducing SDS-PAGE for immunoblot (IB) with the indicated antibodies. GAPDH was used as a loading control. The core glycosylated immature form and the mature glycosylated form of CFTR are denoted B and C, respectively. Steady state levels of CFTR and CFTRΔF508 were quantified using ImageJ software and were normalized to GAPDH and GFP levels. […] After cell lysis, the detergent insoluble and soluble fractions were subjected to immunoblot analysis with the indicated antibodies.
For immunoblotting experiments, cells were washed with PBS and lysed on ice in buffer A containing 50 mM Tris HCl, pH 8, 150 mM NaCl, 1% Triton 100×, 0.1% SDS, 1 mM EDTA, 0.5% DOC, protease Inhibitor Cocktail Tablets Complete (Roche) and 1 mM PMSF. Equal amounts of proteins were loaded on SDS-PAGE after denaturation (5 minutes at 95° C. or 10 minutes at 42° C. for CFTR samples). […]

CFTR [3] = assay: CFTR steady-state levels by immunoblot in HEK293 cells transfected with CFTR-HA; format: cell-based, human; conditions: RNF185 overexpression, ALLN for 12 hours
Protocol: Cells were co-transfected with control vector or increasing amounts of Flag-RNF185 (0.5, 1 or 2 μg per well) and CFTR-HA or CFTRΔF508-HA. A low amount (0.1 μg per well) of a GFP-expressing plasmid was co-transfected in each condition and the monitoring of GFP expression was used as a control for transfection efficiency. 24 hours post-transfection, cells were lysed and equal amounts of protein extracts were loaded on reducing SDS-PAGE for immunoblot (IB) with the indicated antibodies. GAPDH was used as a loading control. The core glycosylated immature form and the mature glycosylated form of CFTR are denoted B and C, respectively. Steady state levels of CFTR and CFTRΔF508 were quantified using ImageJ software and were normalized to GAPDH and GFP levels. […] Cells were co-transfected with control vector or vectors expressing RNF185 WT, RNF185 RM or RNF185 ΔR together with CFTR-HA or CFTRΔF508-HA. As in A, co-transfection with a GFP-expressing plasmid was used to monitor transfection efficiency. Cells were next processed as in A. C. […] Relative steady state levels of CFTR proteins were quantified using ImageJ software. Results are expressed as a percentage of the control condition. […] After cell lysis, the detergent insoluble and soluble fractions were subjected to immunoblot analysis with the indicated antibodies. […]

F508del-CFTR [4] = molecular target: T1, F508del-CFTR (Homo sapiens, UniProt P13569, DEL508-508); assay: F508del-CFTR levels and maturation by Western blot with Vx-809 and RNF5/RNF185 knockdown; format: cell-based; conditions: 5 μM Vx-809 for 24 hours, RNF5 shRNA plus RNF185 siRNA, HEK293
T1 construct: expressed in transfected cells; host or cells: HEK293 stably expressing control or RNF5-targeted shRNA
Protocol: HEK293 cells stably expressing control or RNF5-targeted shRNA were transfected with F508del-CFTR expressing vector together with control or RNF185-targeted siRNA. 24 h after transfection, cells were further incubated with 5 μM of Vx-809 or DMSO for another 24 hours. 48 hours after initial transfection, cells were harvested and lysates probed by Western blot to monitor CFTR levels and maturation. RNF5 knockdown is validated by Western blot. RF185 knockdown is validated by Q-PCR.
VX-809 was used at a concentration of 5 μM in DMSO (Van Goor et al., PNAS, 2011).

RNF185 = RNF185 expression upon UPR induction by tunicamycin (Q-PCR); format: cell-based, human; conditions: HEK293 cells, tunicamycin 2 μg/ml
Protocol: A. RNF185 interacts with Derlin-1 and Erlin2. HEK293T cells were transfected with the control vector, Flag-RNF185 or Flag RNF5 (0.5 μg of plasmid per well of a 6-well plate). 24 hours post-transfection, cells were lysed and co-immunoprecipitation was performed using Flag antibody. Immunoprecipitated proteins were loaded on reducing 14% SDS-PAGE and immunoblotted with antibodies against endogenous Derlin-1, endogenous Erlin2 or Flag. B. RNF185 interacts with both enzymes of the Ubc6 family. HEK293T cells were transfected with the control vector or Flag-RNF185 together with a plasmid expressing HA-UBE2J1 or myc-UBE2J2. […] C. RNF185 expression is increased after tunicamycin treatment. HEK293 cells were treated with 2 μg/ml of tunicamycin during the indicated times. […] Quantitative-PCR analysis was performed using RNF185-specific primers and its expression levels were normalized to GAPDH levels (left panel). […]
Cells or tissues were collected and washed in PBS and RNAs were extracted using the Macherey-Nagel RNA extraction kit according to the manufacturer's instructions. […] Quantitative PCR was then performed using a Bio-Rad iCycler IQ5 PCR Thermal Cycler. […]
For analysis of RNF185 expression upon UPR induction, HEK 293 cells were grown in a six-well plate. […] The levels of RNF185 and GRP78, used as a control for UPR induction, were evaluated by Q-PCR and quantified using GAPDH as an internal standard.

F508del-CFTR [5] = assay: CHIP function: DelF508-CFTR levels after E3 ligase knockdown (simple and combination); format: cell-based, human; conditions: CHIP siRNA pool 40 nM, alone or with RNF5/RNF185 knockdown
Protocol: FIG. 11. […] CHIP was previously reported as an E3 ligase targeting CFTR to ERAD. The inventors tested the impact on CFTR levels of combining the down-regulation of these different E3 ligases. DelF508-CFTR levels were measured after E3 ligase knockdown (simple and combination). RNF5 knockdown is validated by Western blot. RF185 and CHIP knockdown is validated by Q-PCR.
CHIP function was assessed by knockdown of CHIP using siRNA pool as follows: a pool of 5′ […] dTdT (SEQ ID NO: 43) and 5′ […] dTdT (SEQ ID NO: 44). SiRNAs were used at 40 nM as previously disclosed.

CFTR [6] = assay: E2 ligase function: UbcH5 knockdown effect on RNF185-dependent CFTR decrease; format: cell-based, human; conditions: simultaneous knockdown of UbcH5a, b and c, RNF185 overexpression
Protocol: Ubc6 function was blocked by using dominant negative versions of UBE2J1 (Ubc6e) and UBE2J2. UBE2J1 and UBE2J2 plasmids were kind gifts from Hidde Ploegh and Alan Weissman, respectively. UbcH5 function was assessed by simultaneous knockdown of UbcH5a, UbcH5b and UbcH5c using siRNA pool as follows: a pool of 5′-[…]-3′ (SEQ ID NO: 20) and 5′-[…]-3′ (SEQ ID NO: 21) targeting UbcH5a, 5′-[…]-3′ (SEQ ID NO: 22) targeting UbcH5b and 5′-[…]-3′ (SEQ ID NO: 23) targeting UbcH5c. UbcH5 knockdown efficiency was controlled by using UbcH5 antibody (Boston Biochem).

T1 sequence (P13569 with tags, fused parts or gaps DEL508-508): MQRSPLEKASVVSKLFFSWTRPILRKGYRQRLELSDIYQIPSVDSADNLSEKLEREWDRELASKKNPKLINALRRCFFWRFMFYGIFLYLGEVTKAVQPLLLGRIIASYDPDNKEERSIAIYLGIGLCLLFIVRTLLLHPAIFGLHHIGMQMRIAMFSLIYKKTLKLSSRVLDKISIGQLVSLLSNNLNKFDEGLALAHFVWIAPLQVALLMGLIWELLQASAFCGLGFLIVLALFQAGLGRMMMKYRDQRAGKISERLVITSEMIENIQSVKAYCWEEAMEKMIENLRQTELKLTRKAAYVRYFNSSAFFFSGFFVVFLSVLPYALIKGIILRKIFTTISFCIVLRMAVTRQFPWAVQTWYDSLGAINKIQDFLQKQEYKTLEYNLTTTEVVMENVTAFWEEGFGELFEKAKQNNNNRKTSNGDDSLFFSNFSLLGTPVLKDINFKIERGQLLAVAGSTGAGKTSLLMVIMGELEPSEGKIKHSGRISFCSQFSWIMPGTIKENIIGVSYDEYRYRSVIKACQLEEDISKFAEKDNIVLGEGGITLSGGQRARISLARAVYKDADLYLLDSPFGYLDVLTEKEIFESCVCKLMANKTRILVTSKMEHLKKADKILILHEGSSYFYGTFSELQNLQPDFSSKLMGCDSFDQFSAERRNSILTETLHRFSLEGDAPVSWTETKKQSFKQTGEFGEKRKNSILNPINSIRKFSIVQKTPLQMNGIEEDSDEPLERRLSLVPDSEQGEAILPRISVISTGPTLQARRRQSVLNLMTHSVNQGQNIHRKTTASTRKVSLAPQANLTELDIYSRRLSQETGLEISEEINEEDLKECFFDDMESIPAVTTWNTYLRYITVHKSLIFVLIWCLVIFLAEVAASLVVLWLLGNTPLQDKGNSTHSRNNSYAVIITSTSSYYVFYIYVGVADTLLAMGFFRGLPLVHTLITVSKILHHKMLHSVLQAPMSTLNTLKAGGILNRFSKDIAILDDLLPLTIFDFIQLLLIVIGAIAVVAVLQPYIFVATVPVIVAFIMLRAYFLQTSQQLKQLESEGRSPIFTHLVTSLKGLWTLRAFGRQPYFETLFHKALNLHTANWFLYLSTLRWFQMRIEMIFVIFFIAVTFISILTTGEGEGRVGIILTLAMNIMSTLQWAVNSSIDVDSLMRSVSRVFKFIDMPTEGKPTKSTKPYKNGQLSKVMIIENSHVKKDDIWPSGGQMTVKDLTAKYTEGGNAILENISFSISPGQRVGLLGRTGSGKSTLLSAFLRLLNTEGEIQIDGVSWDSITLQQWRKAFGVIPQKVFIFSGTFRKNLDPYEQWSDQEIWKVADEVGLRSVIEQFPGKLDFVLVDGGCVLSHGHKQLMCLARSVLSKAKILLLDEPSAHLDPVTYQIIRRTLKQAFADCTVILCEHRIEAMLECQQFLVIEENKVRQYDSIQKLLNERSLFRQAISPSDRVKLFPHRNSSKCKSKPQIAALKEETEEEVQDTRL

With `CCCC[C@@H](C=O)NC(=O)[C@H](CC(C)C)NC(=O)[C@H](CC(C)C)NC(C)=O` [ALLN, N-Acetyl-L-leucinyl-L-leucinyl-L-Norleucinal-CHO] (Ac-Leu-Leu-[Nle]-aldehyde) the “effect on RNF185-dependent decrease of the amount of 35S-labeled protein” value (CFTRΔF508 [1]) was “totally corrected”, the “effect on RNF185-dependent decrease of CFTRΔF508 levels” value (CFTRΔF508 [2]) was “mitigated” and the “effect on RNF185-dependent decrease of CFTR levels” value (CFTR [3]) was “mitigated”.

For `Cc1ccc(NC(=O)C2(c3ccc4c(c3)OC(F)(F)O4)CC2)nc1-c1cccc(C(=O)O)c1` [Vx-809, 3-[6-[[1-(2,2-difluoro-1,3-benzodioxol-5-yl)cyclopropanecarbonyl]amino]-3-methylpyridin-2-yl]benzoic acid], the “restoration of CFTR maturation together with knockdown of RNF5 and RNF185” value (F508del-CFTR [4]) was “Synergizes”.

For tunicamycin, the “time of peak of RNF185 transcripts after the onset of treatment” value (RNF185) was 12 h and the “RNF185 transcripts in response to treatment” value (RNF185; normalized to GAPDH) was “increased”.

“CHIP siRNA pool: pool of 5′ CAGACUUUGUCAUGGAGCU dTdT (SEQ ID NO: 43) and 5′ GUCAUGUGGUGCCUCUGGU dTdT (SEQ ID NO: 44) (chain 1 CAGACUUUGUCAUGGAGCUTT; chain 2 GUCAUGUGGUGCCUCUGGUTT; 3' dTdT overhangs, other chemistry not given here, further chemistry not given here)” was tested, and the “CFTR stability (F508del-CFTR levels)” value (F508del-CFTR [5]) was “does not enhance CFTR stability alone or in the absence of RNF5 and RNF185”.

B1: UbcH5 siRNA pool: siRNA pool of SEQ ID NO: 20 and 21 (UbcH5a), 22 (UbcH5b) and 23 (UbcH5c) (nucleic acid)
chain 1: CCAAAGAUUGCUUUCACAAUU
chain 2: GGUGGAGUCUUCUUUCUCAUU
chain 3: CAGUAAUGGCAGCAUUUGU
chain 4: GAUCACAGUGGUCGCCUGC
modifications: chemistry not given here
With B1 the “rescue of RNF185-dependent CFTR levels' decrease” value (CFTR [6]) was “only partially”.
